Laboratory results reported in patent US8772500B2, “TRPV3 modulators” (AbbVie Inc., priority 2011, dated 2014).
pIC50: −log10 of the molar value.

How the values were obtained:
human TRPV3 = molecular target: T1, human TRPV3 (Homo sapiens, UniProt Q8NET8); test: In vitro antagonism of recombinant human TRPV3 activation (FLIPR Tetra calcium assay, 2-APB as agonist); type: cell-based; settings: HEK293 cells stably expressing human TRPV3; 2-APB 80 μM; range class; read-out: IC50 (reported range)
T1 construct: expressed in transfected cells
T1 sequence (Q8NET8 1-790): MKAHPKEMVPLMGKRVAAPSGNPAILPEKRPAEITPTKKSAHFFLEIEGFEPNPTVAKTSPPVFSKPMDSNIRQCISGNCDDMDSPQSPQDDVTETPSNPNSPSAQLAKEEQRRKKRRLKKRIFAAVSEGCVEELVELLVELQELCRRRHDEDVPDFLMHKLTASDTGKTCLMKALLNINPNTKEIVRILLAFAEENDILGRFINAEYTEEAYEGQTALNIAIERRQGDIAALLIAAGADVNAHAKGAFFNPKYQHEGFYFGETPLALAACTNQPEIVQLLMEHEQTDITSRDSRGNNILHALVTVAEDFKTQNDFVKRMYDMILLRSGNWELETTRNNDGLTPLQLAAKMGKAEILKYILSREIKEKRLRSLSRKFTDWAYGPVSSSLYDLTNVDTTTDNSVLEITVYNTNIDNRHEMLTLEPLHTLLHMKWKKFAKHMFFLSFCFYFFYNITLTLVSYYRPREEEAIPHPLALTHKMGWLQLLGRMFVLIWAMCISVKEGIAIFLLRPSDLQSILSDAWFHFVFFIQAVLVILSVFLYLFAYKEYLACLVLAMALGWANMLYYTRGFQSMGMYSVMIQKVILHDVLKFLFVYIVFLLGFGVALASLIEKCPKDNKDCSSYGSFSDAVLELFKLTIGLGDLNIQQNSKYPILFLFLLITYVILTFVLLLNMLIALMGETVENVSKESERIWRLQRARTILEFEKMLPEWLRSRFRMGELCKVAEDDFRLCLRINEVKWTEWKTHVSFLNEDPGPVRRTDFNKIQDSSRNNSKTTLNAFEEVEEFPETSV
Method: Test compounds were evaluated for ability to antagonize the activation of recombinant human TRPV3 using FLIPR® Tetra cellular screening. Specifically, on the day prior to the experiment recombinant HEK293 cells that stably express human TRPV3 were removed from tissue culture flasks and plated in growth medium at 20,000 cells/well into Poly-d-lysine coated black/clear 384-well Plate (Corning, 3845) using a Multidrop® dispenser (ThermoScientific, Waltham, Mass.). Prior to the start of the assay, the medium was removed by aspiration, and cells were loaded with 30 μL no-wash FLIPR® Calcium-4 dye (λEX=470-495 nm, λEM=515-575 nm; Molecular Devices, Sunnyvale, Calif.). The cells were then incubated for 90-120 minutes in the dark prior to addition of the test compound.
A double-addition protocol was used. The test compound (i.e., the TRPV3 antagonist) was added at the 10 second time point, followed by the addition of a TRPV3 agonist three minutes later. Each test compound evaluated was first dissolved in DMSO to prepare a 10 mM stock solution. A solution (5×) of the test compound was then prepared in DPBS (Dulbecco's Phosphate Buffered Saline) and 10 μL of that solution was added to the cells at a delivery rate of 40 μL/sec. The TRPV3 agonist used to activate human TRPV3 expressed by the […] was 2-aminoethoxy-diphenyl borate (2-APB; Tocris Cookson, Ellisville, Mo.) at 80 μM. Final assay volume was 50 μL. Total length of an experimental run was 10 minutes.
Changes in fluorescence were measured over time using the FLIPR® instrument. The intensity of the fluorescence was captured and digitally transferred to an interfaced computer. The maximum response minus minimum response was calculated and expressed as the percentage of the maximum 2-APB response in the absence of antagonist. The concentration of 2-APB corresponds to its EC80.
Table 1 reports the IC50 values measured for the test compounds as human TRPV3 antagonists. […] Actual measured values are shown parenthetically after the reported range. In most cases, the values reported are average values from at least two runs (i.e., n≧2).

[1] = In vitro human microsomal stability assay; type: in vitro ADME; settings: for HUMAN MICROSOMAL STABILITY (% REMAINING AFTER 30 MINUTES): 0.5 h, 0.5 μM, pH 7.4
Summary of the method: (§1)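 Metabolic stability was measured in liver microsomes from Sprague-Dawley rat or from human. Incubations ran at 37 °C with NADPH as cofactor, and NADPH was also added to the time-zero samples.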

[2] = In vitro rat microsomal stability assay; type: in vitro ADME, rat (Sprague-Dawley); settings: for RAT MICROSOMAL STABILITY (% REMAINING AFTER 30 MINUTES): Sprague-Dawley, 0.5 h, 0.5 μM, pH 7.4
Summary of the method: as §1

[3] = 0.5 μM substrate, 0.25 mg/mL microsomal protein, pH 7.4, 37° C., NADPH, 30 minutes

Compound	pIC50 (human TRPV3)	HUMAN […] (% REMAINING AFTER 30 MINUTES) [1, 3] [%]	RAT […] (% REMAINING AFTER 30 MINUTES) [2, 3] [%]	HUMAN MICROSOMAL STABILITY (% REMAINING AFTER 30 MINUTES) [1] [%]	RAT MICROSOMAL STABILITY (% REMAINING AFTER 30 MINUTES) [2] [%]
CC1(O)CC(c2ccc(C(F)(F)F)cc2)([C@H](O)c2ccccn2)C1 (stereo in doubt) [Example 233, trans-3-[(S)-hydroxy(pyridin-2-yl)methyl]-1-methyl-3-[4-(trifluoromethyl)-phenyl]cyclobutanol]	4.70 to 5.29	>85	67		
OC(c1ccccn1)C1(c2ccccc2F)CCC1 (stereo not drawn) [Example 1, [1-(2-fluorophenyl)cyclobutyl](pyridin-2-yl)methanol]	5.30 to 5.96			0.38	0.48
OC(c1ccccn1)C1(c2cccc(F)c2)CCC1 (stereo not drawn) [Example 2, [1-(3-fluorophenyl)cyclobutyl](pyridin-2-yl)methanol]	6.30 to 7.30			17	0.64
OC(c1ccccn1)C1(c2ccc(F)cc2)CCC1 (stereo not drawn) [Example 3, [1-(4-fluorophenyl)cyclobutyl](pyridin-2-yl)methanol]	6.00 to 6.30			28	3.8
OC(c1ccccn1)C1(c2ccc(F)c(F)c2)CCC1 (stereo not drawn) [Example 4, [1-(3,4-difluorophenyl)cyclobutyl](pyridin-2-yl)methanol]	6.30 to 7.30			19	4.2
OC(c1ccccn1)C1(c2ccccc2C(F)(F)F)CCC1 (stereo not drawn) [Example 5, pyridin-2-yl{1-[2-(trifluoromethyl)phenyl]cyclobutyl}methanol]	4.70 to 5.29			0.27	0.06
OC(c1ccccn1)C1(c2cccc(C(F)(F)F)c2)CCC1 (stereo not drawn) [Example 6, pyridin-2-yl{1-[3-(trifluoromethyl)phenyl]cyclobutyl}methanol]	6.30 to 7.30			1.2	2.3
Cc1ccccc1C1(C(O)c2ccccn2)CCC1 (stereo not drawn) [Example 7, [1-(2-methylphenyl)cyclobutyl](pyridin-2-yl)methanol]	4.70 to 5.29			0.15	0.32
Cc1cccc(C2(C(O)c3ccccn3)CCC2)c1 (stereo not drawn) [Example 8, [1-(3-methylphenyl)cyclobutyl](pyridin-2-yl)methanol]	6.30 to 7.30			0.13	0.73
Cc1ccc(C2(C(O)c3ccccn3)CCC2)cc1 (stereo not drawn) [Example 9, [1-(4-methylphenyl)cyclobutyl](pyridin-2-yl)methanol]	5.30 to 5.96			0.12	0.18
OC(c1ccccn1)C1(c2ccccc2OC(F)(F)F)CCC1 (stereo not drawn) [Example 10, pyridin-2-yl{1-[2-(trifluoromethoxy)phenyl]cyclobutyl}methanol]	5.30 to 5.96			0.42	0.62
OC(c1ccccn1)C1(c2cccc(OC(F)(F)F)c2)CCC1 (stereo not drawn) [Example 11, pyridin-2-yl{1-[3-(trifluoromethoxy)phenyl]cyclobutyl}methanol]	6.30 to 7.30			0.72	0.80
OC(c1ccccn1)C1(c2ccc(OC(F)(F)F)cc2)CCC1 (stereo not drawn) [Example 12, pyridin-2-yl{1-[4-(trifluoromethoxy)phenyl]cyclobutyl}methanol]	6.30 to 7.30			24	11
OC(c1ccccn1)C1(c2cc(C(F)(F)F)cc(C(F)(F)F)c2)CCC1 (stereo not drawn) [Example 13, {1-[3,5-bis(trifluoromethyl)phenyl]cyclobutyl}(pyridin-2-yl)methanol]	6.00 to 6.30			7.4	19
OC(c1ccccn1)C1(c2ccc(F)c(C(F)(F)F)c2)CCC1 (stereo not drawn) [Example 15, {1-[4-fluoro-3-(trifluoromethyl)phenyl]cyclobutyl}(pyridin-2-yl)methanol]	6.30 to 7.30			5.6	1.2
OC(c1ccccn1)C1(c2ccc(C(F)(F)F)c(F)c2)CCC1 (stereo not drawn) [Example 17]	5.30 to 5.96			21	13
OC(c1ccccn1)C1(c2cccc(Oc3ccccc3)c2)CCC1 (stereo not drawn) [Example 23, [1-(3-phenoxyphenyl)cyclobutyl](pyridin-2-yl)methanol]	6.00 to 6.30			0.12	0.69
OC(c1ccccn1)C1(c2ccc(Oc3ccccc3)cc2)CCC1 (stereo not drawn) [Example 24, [1-(4-phenoxyphenyl)cyclobutyl](pyridin-2-yl)methanol]	5.30 to 5.96			20	17
OC(c1ccccn1)C1(c2ccc(Cc3ccccc3)cc2)CCC1 (stereo not drawn) [Example 25, [1-(4-benzylphenyl)cyclobutyl](pyridin-2-yl)methanol]	5.30 to 5.96			21	1.3
O[C@H](c1ccccn1)C1(c2ccc(Cl)c(Cl)c2)CCC1 [Example 26, (S)-[1-(3,4-dichlorophenyl)cyclobutyl](pyridin-2-yl)methanol]	6.30 to 7.30			6.3	1.0
O[C@H](c1ccccn1)C1(c2ccc(C(F)(F)F)cc2F)CCC1 [Example 27, (S)-{1-[2-fluoro-4-(trifluoromethyl)phenyl]cyclobutyl}(pyridin-2-yl)-methanol]	5.30 to 5.96			13	15
O[C@H](c1ccccn1)C1(c2ccc(C(F)(F)F)cc2)CCC1 [Example 28, (S)-pyridin-2-yl{1-[4-(trifluoromethyl)phenyl]cyclobutyl}methanol]	6.30 to 7.30			12	13
O[C@H](c1ccccn1)C1(c2ccc(C(F)(F)F)c(F)c2)CCC1 [Example 29, (S)-{1-[3-fluoro-4-(trifluoromethyl)phenyl]cyclobutyl}(pyridin-2-yl)-methanol]	5.30 to 5.96			5.3	45
Cc1cccnc1[C@@H](O)C1(c2ccc(Cl)c(Cl)c2)CCC1 [Example 30, (S)-[1-(3,4-dichlorophenyl)cyclobutyl](3-methylpyridin-2-yl)methanol]	5.30 to 5.96			1.5	0.98
